Experimental data taken from the supplement of paper PMC10307832.

Compound: NC(=O)[C@@H](CCC(F)(F)F)N(Cc1ccc(-c2ncon2)cc1F)S(=O)(=O)c1ccc(Cl)cc1 [Avagacestat]
Test: relative viability (nuclei count vs DMSO), 5 days (fraction); higher = more cells survive
Method in brief: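 Following overnight incubation at 37 °C, lung cancer cell lines in 1536-well plates were pinned with five library-drug doses (not always all listed) in √10 steps on vehicle-anchored plates. The cells then spent 5 days without medium change before a combined fix, permeabilisation and Hoechst stain, 4× imaging and MetaXpress nuclear counts. Viability is the treated-to-vehicle ratio of nuclei, taken as the median across plates. Only plates with control CV below 25% and at least one doubling passed.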

| Cell Line | relative viability (0.08 µM) | relative viability (0.253 µM) | relative viability (0.8 µM) | relative viability (2.53 µM) | relative viability (8 µM) |
| --- | --- | --- | --- | --- | --- |
| 201T | 0.995 | 1 | 1.1 | 0.927 | 0.965 |
| A-427 | 1.12 | 1.12 | 1.17 | 1.07 | 1.08 |
| ABC-1 | 1.1 | 1.25 | 1.26 | 1.14 | 0.877 |
| BEN | 1.13 | 1.02 | 1.06 | 0.959 | 0.917 |
| CAL-12T | 1.09 | 1.12 | 1.11 | 1.11 | 1.04 |
| COR-L23 | 1.16 | 1.24 | 0.989 | 0.921 | 0.901 |
| COR-L 105 | 0.955 | 1.07 | 0.923 | 0.876 | 0.633 |
| Calu-6 | 1.15 | 1.22 | 1.13 | 1.07 | 1.04 |
| ChaGo-K-1 | 1.13 | 0.948 | 0.969 | 0.99 | 0.889 |
| EKVX | 1.17 | 1.07 | 1.19 | 0.886 | 0.871 |
| EMC-BAC-2 | 1.22 | 1.08 | 1.15 | 1.08 | 1.1 |
| EPLC-272H | 0.989 | 0.922 | 1.07 | 1 | 0.911 |
| H3255 | 1.04 | 1.06 | 1.08 | 1.01 | 0.988 |
| HARA | 0.891 | 1.17 | 1.06 | 0.963 | 0.989 |
| HCC-15 | 1.17 | 1.19 | 1.13 | 1 | 0.946 |
| HCC-44 | 0.999 | 0.999 | 0.997 | 0.968 | 0.935 |
| HCC-78 | 1.07 | 1.01 | 1.18 | 0.801 | 0.915 |
| HCC-366 | 1.04 | 1.17 | 1.07 | 1.11 | 1.11 |
| HCC-827 | 1.1 | 1.09 | 1.11 | 1.09 | 1.11 |
| HOP-62 | 1.15 | 1.17 | 1.03 | 0.991 | 0.895 |
| IA-LM | 1.83 | 1.62 | 1.44 | 1.51 | 1.26 |
| LC-2-ad | 1.02 | 0.985 | 1.11 | 1.03 | 0.96 |
| LCLC-97TM1 | 1.08 | 1.09 | 1.2 | 1 | 0.829 |
| LCLC-103H | 0.994 | 0.928 | 0.921 | 0.929 | 0.941 |
| LK-2 | 1.28 | 1.22 | 0.784 | 0.604 | 0.874 |
| LOU-NH91 | 1.05 | 0.881 | 1.14 | 0.917 | 0.968 |

| Cell Line | relative viability (0.08 µM) | relative viability (0.253 µM) | relative viability (0.8 µM) | relative viability (2.53 µM) | relative viability (8 µM) |
| --- | --- | --- | --- | --- | --- |
| LU99A | 0.977 | 0.997 | 1.12 | 0.907 | 0.986 |
| LXF-289 | 0.995 | 1.05 | 1.05 | 0.994 | 0.975 |
| NCI-H23 | 1.01 | 1.08 | 1.17 | 1.03 | 0.944 |
| NCI-H322M | 0.916 | 0.833 | 0.97 | 0.74 | 0.846 |
| NCI-H358 | 1.02 | 1 | 1.03 | 0.835 | 0.835 |
| NCI-H441 | 1.32 | 1.61 | 1.09 | 1.24 | 0.794 |
| NCI-H460 | 1.09 | 1.31 | 1.03 | 0.942 | 0.951 |
| NCI-H520 | 1.04 | 1.08 | 1 | 0.918 | 0.825 |
| NCI-H522 | 0.922 | 1.04 | 0.969 | 1.12 | 0.938 |
| NCI-H596 | 1.06 | 0.986 | 0.985 | 1.04 | 0.936 |
| NCI-H647 | 0.992 | 1.07 | 1.13 | 0.922 | 0.899 |
| NCI-H650 | 1.02 | 0.966 | 1.05 | 1.16 | 0.872 |
| NCI-H661 | 1.02 | 1.2 | 1.04 | 0.85 | 1.02 |
| NCI-H727 | 1.06 | 0.987 | 0.948 | 1.02 | 0.837 |
| NCI-H838 | 1.03 | 1.11 | 1.05 | 0.894 | 0.935 |
| NCI-H1299 | 1.03 | 1.11 | 1.06 | 1.04 | 1 |
| NCI-H1355 | 1.07 | 1.2 | 1.03 | 0.876 | 0.874 |
| NCI-H1395 | 0.909 | 0.903 | 0.97 | 0.875 | 0.861 |
| NCI-H1437 | 1.09 | 0.997 | 1.1 | 0.915 | 0.877 |
| NCI-H1563 | 0.984 | 0.986 | 0.968 | 0.798 | 0.813 |
| NCI-H1648 | 0.583 | 0.705 | 0.513 | 0.55 | 0.457 |
| NCI-H1650 | 1.1 | 1.08 | 0.95 | 1.13 | 0.881 |
| NCI-H1651 | 1.08 | 1.09 | 1.13 | 0.98 | 0.922 |
| NCI-H1666 | 1.28 | 1.18 | 1.26 | 1.17 | 1.17 |
| NCI-H1703 | 1.24 | 1.03 | 0.975 | 0.955 | 0.873 |
| NCI-H1734 | 1.04 | 1.19 | 1 | 1.04 | 0.994 |

| Cell Line | relative viability (0.08 µM) | relative viability (0.253 µM) | relative viability (0.8 µM) | relative viability (2.53 µM) | relative viability (8 µM) |
| --- | --- | --- | --- | --- | --- |
| NCI-H1755 | 1.03 | 1.1 | 1.17 | 0.941 | 0.964 |
| NCI-H1792 | 1.15 | 0.866 | 1.36 | 0.859 | 0.761 |
| NCI-H1793 | 1.04 | 1.11 | 1.06 | 0.858 | 0.846 |
| NCI-H1915 | 1.04 | 1.21 | 1.06 | 1.03 | 0.978 |
| NCI-H1944 | 1.06 | 1.15 | 0.924 | 0.865 | 0.922 |
| NCI-H1975 | 1.02 | 1.21 | 1.15 | 0.943 | 0.967 |
| NCI-H1993 | 1.16 | 1.09 | 1.34 | 0.93 | 1.01 |
| NCI-H2009 | 1.04 | 1.09 | 1.04 | 1.04 | 0.912 |
| NCI-H2023 | 1.18 | 1.22 | 1.1 | 0.912 | 0.804 |
| NCI-H2085 | 1.05 | 1.02 | 1.04 | 1.1 | 0.985 |
| NCI-H2087 | 1.29 | 1.06 | 1.12 | 1.08 | 1.06 |
| NCI-H2126 | 0.994 | 1.04 | 1.06 | 0.921 | 0.936 |
| NCI-H2170 | 1.08 | 1.18 | 0.994 | 0.938 | 0.932 |
| NCI-H2228 | 1.07 | 1.22 | 1.29 | 0.9 | 1.01 |
| NCI-H2342 | 0.955 | 0.906 | 0.935 | 0.888 | 0.949 |
| NCI-H2347 | 1.1 | 1.07 | 1.13 | 1.03 | 0.97 |
| NCI-H2405 | 1.01 | 0.99 | 1.08 | 0.956 | 0.97 |
| NCI-H3122 | 1.07 | 1.08 | 1.05 | 0.995 | 0.927 |
| PC-3 [JPC-3] | 1.2 | 1.08 | 1.25 | 1.05 | 1.02 |
| PC-14 | 1.32 | 1.18 | 1.35 | 1.02 | 0.922 |
| RERF-LC-KJ | 1.07 | 1.1 | 1.04 | 0.945 | 0.856 |
| SK-LU-1 | 1.21 | 1.03 | 1.02 | 0.83 | 0.908 |
| SK-MES-1 | 1.14 | 1.08 | 1.06 | 0.92 | 0.889 |
| SW 900 | 1.07 | 1.04 | 1.06 | 0.967 | 0.979 |
| SW 1573 | 1.14 | 1.14 | 1.06 | 0.972 | 0.895 |
| UMC-11 | 1.04 | 1.07 | 1.1 | 1.02 | 1.06 |
